In brackets after ≈: the same amount, converted by molar mass.
Columns and labels:
Type in all cases: cell-based
[1] = system: Staphylococcus aureus FDA 209PJc-1; test: Antibacterial activity, agar-dilution MIC, organism No. 1; details: Staphylococcus aureus, FDA209PJC1; Organism No. 1, bouillon-agar; read-out: Minimum Inhibitory Concentration
Summary of the method: (§1)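 Minimum inhibitory concentration determined on solid bouillon agar by the agar-dilution technique, with values stated as μg/ml.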

[2] = system: Staphylococcus aureus Terajima; test: Antibacterial activity, agar-dilution MIC, organism No. 2; details: Staphylococcus aureus; Organism No. 2, bouillon-agar; read-out: Minimum Inhibitory Concentration
Summary of the method: as §1

[3] = system: Staphylococcus aureus MS 353; test: Antibacterial activity, agar-dilution MIC, organism No. 3; details: Staphylococcus aureus, MS353; Organism No. 3, bouillon-agar; read-out: Minimum Inhibitory Concentration
Summary of the method: as §1

[4] = system: Streptococcus pyogenes Cook; test: Antibacterial activity, agar-dilution MIC, organism No. 4; details: Streptococcus pyogenes; Organism No. 4, bouillon-agar; read-out: Minimum Inhibitory Concentration
Summary of the method: as §1

[5] = system: Escherichia coli NIHJ-JC-2; test: Antibacterial activity, agar-dilution MIC, organism No. 5; details: Escherichia coli, NIHJJC2; Organism No. 5, bouillon-agar; read-out: Minimum Inhibitory Concentration
Summary of the method: as §1

[6] = system: Escherichia coli K12 C600 IAM 1264; test: Antibacterial activity, agar-dilution MIC, organism No. 6; details: Escherichia coli, IAM1264; Organism No. 6, bouillon-agar; read-out: Minimum Inhibitory Concentration
Summary of the method: as §1

[7] = system: Klebsiella pneumoniae PCI-602; test: Antibacterial activity, agar-dilution MIC, organism No. 7; details: Klebsiella pneumoniae, PCI602; Organism No. 7, bouillon-agar; read-out: Minimum Inhibitory Concentration
Summary of the method: as §1

[8] = system: Salmonella typhimurium IID 971; test: Antibacterial activity, agar-dilution MIC, organism No. 8; details: Salmonella enterica; Organism No. 8, bouillon-agar; read-out: Minimum Inhibitory Concentration
Summary of the method: as §1

Salmonella typhi 901 = test: Antibacterial activity, agar-dilution MIC, organism No. 9; details: Salmonella enterica, TYPHI, read-out: Minimum Inhibitory Concentration
Summary of the method: as §1

[9] = system: Salmonella paratyphi-A 1015; test: Antibacterial activity, agar-dilution MIC, organism No. 10; details: Salmonella enterica, PARATYPHI, read-out: Minimum Inhibitory Concentration
Summary of the method: as §1

[10] = system: Salmonella shottmuelleri 8006; test: Antibacterial activity, agar-dilution MIC, organism No. 11; details: Salmonella, 8006; Organism No. 11, bouillon-agar; read-out: Minimum Inhibitory Concentration
Summary of the method: as §1

[11] = system: Salmonella enteritidis G 14; test: Antibacterial activity, agar-dilution MIC, organism No. 12; details: Salmonella enterica, ENTERITIDIS; Organism No. 12, bouillon-agar; read-out: Minimum Inhibitory Concentration
Summary of the method: as §1

[12] = system: Serratia marcescens IAM 1184; test: Antibacterial activity, agar-dilution MIC, organism No. 13; details: Serratia marcescens, IAM1184; Organism No. 13, bouillon-agar; read-out: Minimum Inhibitory Concentration
Summary of the method: as §1

[13] = system: Bacillus subtilis ATCC 6633; test: Antibacterial activity, agar-dilution MIC, organism No. 14; details: Bacillus subtilis, ATCC6633; Organism No. 14, bouillon-agar; read-out: Minimum Inhibitory Concentration
Summary of the method: as §1

[14] = system: Pseudomonas aeruginosa IFO 3445; test: Antibacterial activity, agar-dilution MIC, organism No. 15; details: Pseudomonas aeruginosa, IFO3445; Organism No. 15, bouillon-agar; read-out: Minimum Inhibitory Concentration
Summary of the method: as §1

[15] = system: Pseudomonas aeruginosa NCTC 10490; test: Antibacterial activity, agar-dilution MIC, organism No. 16; details: Pseudomonas aeruginosa, NCTC10490; Organism No. 16, bouillon-agar; read-out: Minimum Inhibitory Concentration
Summary of the method: as §1

[16] = system: Pseudomonas aeruginosa PAO 1; test: Antibacterial activity, agar-dilution MIC, organism No. 17; details: Pseudomonas aeruginosa, PAO1; Organism No. 17, bouillon-agar; read-out: Minimum Inhibitory Concentration
Summary of the method: as §1

[17] = system: Proteus morganii IFO 3848; test: Antibacterial activity, agar-dilution MIC, organism No. 18; details: Morganella morganii, IFO3848; Organism No. 18, bouillon-agar; read-out: Minimum Inhibitory Concentration
Summary of the method: as §1

[18] = system: Proteus mirabilis IFO 3849; test: Antibacterial activity, agar-dilution MIC, organism No. 19; details: Proteus mirabilis, IFO3849; Organism No. 19, bouillon-agar; read-out: Minimum Inhibitory Concentration
Summary of the method: as §1

Proteus vulgaris OX-19 = test: Antibacterial activity, agar-dilution MIC, organism No. 20; details: Proteus vulgaris, OX19; Organism No. 20, bouillon-agar; read-out: Minimum Inhibitory Concentration
Summary of the method: as §1

Proteus vulgaris HX-19 = test: Antibacterial activity, agar-dilution MIC, organism No. 21; details: Proteus vulgaris, HX19; Organism No. 21, bouillon-agar; read-out: Minimum Inhibitory Concentration
Summary of the method: as §1

[19] = system: Proteus rettgeri IFO 3850; test: Antibacterial activity, agar-dilution MIC, organism No. 22; details: Providencia rettgeri, IFO3850; Organism No. 22, bouillon-agar; read-out: Minimum Inhibitory Concentration
Summary of the method: as §1

[20] = system: Enterobacter aerogenes ATCC 13048; test: Antibacterial activity, agar-dilution MIC, organism No. 23; details: Klebsiella aerogenes, ATCC13048; Organism No. 23, bouillon-agar; read-out: Minimum Inhibitory Concentration
Summary of the method: as §1

Enterobacter cloacae 963 = test: Antibacterial activity, agar-dilution MIC, organism No. 24; details: Enterobacter cloacae, 963; Organism No. 24, bouillon-agar; read-out: Minimum Inhibitory Concentration
Summary of the method: as §1

[21] = system: Micrococcus luteus ATCC 9341; test: Antibacterial activity, agar-dilution MIC, organism No. 25; details: Micrococcus luteus, ATCC9341; Organism No. 25, bouillon-agar; read-out: Minimum Inhibitory Concentration
Summary of the method: as §1

[22] = system: Streptococcus pyogenes IFO 3340; test: Antibacterial activity, agar-dilution MIC, organism No. 26; details: Streptococcus pyogenes, IFO3340; Organism No. 26, bouillon-agar; read-out: Minimum Inhibitory Concentration
Summary of the method: as §1

[23] = system: Streptococcus faecium IFO 3826; test: Antibacterial activity, agar-dilution MIC, organism No. 27; details: Enterococcus faecium, IFO3826; Organism No. 27, bouillon-agar; read-out: Minimum Inhibitory Concentration
Summary of the method: as §1

[24] = system: Mycoplasma pneumoniae IID817; test: Antimycoplasmal activity, MIC by phenol red colour change, organism No. 28; details: Mycoplasma, IID817; Organism No. 28, PPLO broth + 1% glucose, 37° C.; read-out: Minimum Inhibitory Concentration (MIC)
Experimental: Mycoplasma pneumoniae IID817 was used as the test microorganism in a culture medium prepared by adding 1% of glucose to "PPLO broth (manufactured by Difco Co.) liquid culture medium" at 37° C. with phenol red as an indicator, thereby culturing the test microorganism.

[25] = system: Candida albicans IAM 4905; test: Antifungal activity, agar-dilution MIC, organism No. 29; details: Candida albicans, IAM4905; Organism No. 29, bouillon-agar; read-out: Minimum Inhibitory Concentration
Summary of the method: as §1

[26] = system: Aspergillus niger IFO 6342; test: Antifungal activity, agar-dilution MIC, organism No. 30; details: Aspergillus niger, IFO6342; Organism No. 30, bouillon-agar; read-out: Minimum Inhibitory Concentration
Summary of the method: as §1

Row | SMILES | MIC [1] [µg/mL] | MIC [2] [µg/mL] | MIC [3] [µg/mL] | MIC [4] [µg/mL] | MIC [5] [µg/mL] | MIC [6] [µg/mL] | MIC [7] [µg/mL] | MIC [8] [µg/mL] | MIC (Salmonella typhi 901) [µg/mL] | MIC [9] [µg/mL] | MIC [10] [µg/mL] | MIC [11] [µg/mL] | MIC [12] [µg/mL] | MIC [13] [µg/mL] | MIC [14] [µg/mL] | MIC [15] [µg/mL] | MIC [16] [µg/mL] | MIC [17] [µg/mL] | MIC [18] [µg/mL] | MIC (Proteus vulgaris OX-19) [µg/mL] | further results
1 | [C-]#[N+]C12CC3(/C=C/C(=O)Nc4cccc(C(=O)O)c4)OC3C1O2 (stereo not drawn) [compound 52] | 12 (≈ 38.4 µM) | 50 (≈ 160 µM) | 25 (≈ 80.1 µM) | 50 (≈ 160 µM) | 200 (≈ 640 µM) | 200 (≈ 640 µM) | 200 (≈ 640 µM) | 100 (≈ 320 µM) | 50 (≈ 160 µM) | 50 (≈ 160 µM) | 50 (≈ 160 µM) | 50 (≈ 160 µM) | > 200 | 200 (≈ 640 µM) | > 200 | > 200 | > 200 | 12.5 (≈ 40 µM) | > 200 | 50 (≈ 160 µM) | MIC (Proteus vulgaris HX-19): 50 µg/mL (≈ 160 µM); MIC [19]: > 200 µg/mL; MIC [20]: > 200 µg/mL; MIC (Enterobacter cloacae 963): > 200 µg/mL; MIC [21]: 25 µg/mL (≈ 80.1 µM); MIC [22]: 100 µg/mL (≈ 320 µM); MIC [23]: 50 µg/mL (≈ 160 µM); MIC [24]: < 0.2 µg/mL; MIC [25]: 100 µg/mL (≈ 320 µM); MIC [26]: 100 µg/mL (≈ 320 µM)
2 | [C-]#[N+]C12CC3(/C=C/C(=O)Nc4cccc(OC)c4)OC3C1O2 (stereo not drawn) [compound 54] | 0.39 (≈ 1.31 µM) | 1.56 (≈ 5.23 µM) | 0.2 (≈ 0.67 µM) | 25 (≈ 83.8 µM) | 50 (≈ 168 µM) | 50 (≈ 168 µM) | 0.2 (≈ 0.67 µM) | 6.25 (≈ 21 µM) | 3.13 (≈ 10.5 µM) | 0.78 (≈ 2.61 µM) | 0.39 (≈ 1.31 µM) | 3.13 (≈ 10.5 µM) | 100 (≈ 335 µM) | 3.13 (≈ 10.5 µM) | > 200 | > 200 | > 200 | 0.39 (≈ 1.31 µM) | > 200 | 0.39 (≈ 1.31 µM) | MIC (Proteus vulgaris HX-19): 0.3 µg/mL (≈ 1.01 µM); MIC [19]: 6.25 µg/mL (≈ 21 µM); MIC [20]: > 200 µg/mL; MIC (Enterobacter cloacae 963): > 200 µg/mL; MIC [21]: 0.05 µg/mL (≈ 0.168 µM); MIC [22]: 0.39 µg/mL (≈ 1.31 µM); MIC [23]: 25 µg/mL (≈ 83.8 µM); MIC [24]: < 0.2 µg/mL; MIC [25]: 0.79 µg/mL (≈ 2.65 µM); MIC [26]: 1.56 µg/mL (≈ 5.23 µM)
3 | [C-]#[N+]C12CC3(/C=C/C(=O)Nc4ccccc4OC)OC3C1O2 (stereo not drawn) [compound 55] | 1.56 (≈ 5.23 µM) | 3.13 (≈ 10.5 µM) | 0.78 (≈ 2.61 µM) | 200 (≈ 670 µM) | 200 (≈ 670 µM) | 200 (≈ 670 µM) | 0.39 (≈ 1.31 µM) | 50 (≈ 168 µM) | 25 (≈ 83.8 µM) | 12.5 (≈ 41.9 µM) | 3.13 (≈ 10.5 µM) | 12.5 (≈ 41.9 µM) | > 200 | 25 (≈ 83.8 µM) | > 200 | > 200 | > 200 | 6.25 (≈ 21 µM) | > 200 | 6.25 (≈ 21 µM) | MIC (Proteus vulgaris HX-19): < 0.05 µg/mL; MIC [19]: > 200 µg/mL; MIC [20]: > 200 µg/mL; MIC (Enterobacter cloacae 963): > 200 µg/mL; MIC [21]: < 0.05 µg/mL; MIC [22]: 6.25 µg/mL (≈ 21 µM); MIC [23]: 200 µg/mL (≈ 670 µM); MIC [24]: < 0.2 µg/mL; MIC [25]: 3.13 µg/mL (≈ 10.5 µM); MIC [26]: 12.5 µg/mL (≈ 41.9 µM)
4 | [C-]#[N+]C12CC3(/C=C/C(=O)Nc4cccc(O)c4)OC3C1O2 (stereo not drawn) [compound 57] | 1.56 (≈ 5.49 µM) | 6.25 (≈ 22 µM) | 1.56 (≈ 5.49 µM) | 12.5 (≈ 44 µM) | 12.5 (≈ 44 µM) | 12.5 (≈ 44 µM) | 1.56 (≈ 5.49 µM) | 12.5 (≈ 44 µM) | 3.13 (≈ 11 µM) | 3.13 (≈ 11 µM) | 1.56 (≈ 5.49 µM) | 3.13 (≈ 11 µM) | 12.5 (≈ 44 µM) | 6.25 (≈ 22 µM) | > 200 | > 200 | > 200 | 1.56 (≈ 5.49 µM) | 6.25 (≈ 22 µM) | 1.56 (≈ 5.49 µM) | MIC (Proteus vulgaris HX-19): 0.78 µg/mL (≈ 2.74 µM); MIC [19]: 3.13 µg/mL (≈ 11 µM); MIC [20]: > 200 µg/mL; MIC (Enterobacter cloacae 963): 100 µg/mL (≈ 352 µM); MIC [21]: 0.1 µg/mL (≈ 0.352 µM); MIC [22]: 3.13 µg/mL (≈ 11 µM); MIC [23]: 25 µg/mL (≈ 87.9 µM); MIC [24]: < 0.2 µg/mL; MIC [25]: 50 µg/mL (≈ 176 µM); MIC [26]: 50 µg/mL (≈ 176 µM)
